{"source": "patent US20090286787A1", "about": "“SUBSTITUTED GAMMA LACTAMS AS THERAPEUTIC AGENTS” (ALLERGAN, INC., priority 2008, published 2009)", "test_system": "lashes and adjacent hairs of patients", "test": "lash and hair appearance in glaucoma patients treated in only one eye", "assay_type": "in vivo, human", "conditions": "unilateral treatment", "from_the_text": "In the course of treating patients having glaucoma, treatment may only be appropriate in one eye. […] The lash appearance on the lids of the treated eyes would have appeared quite attractive if it represented a bilateral phenomenon. As a result of its asymmetric nature, the long lashes on one side could be construed as disturbing from a cosmetic standpoint. A systemic examination was preformed as a result of the asymmetric phenomenon. It soon became apparent that this altered appearance was not an isolated finding. […] Definite differences could be identified to varying degrees in the lashes and adjacent hairs of all patients who were taking the drug on a unilateral basis for longer than 6 months.\nThe changes in the lashes were apparent on gross inspection in several patients once attention was focused on the issue. In those with light colored hair and lashes, the differences were only seen easily with the aid of the high magnification and lighting capabilities of the slit lamp biomicroscope. In the course of glaucoma follow-up examination, attention is generally immediately focused on the eye itself. As a result of the high power magnification needed only one eye is seen at a time and the eye is seen at a high enough power that the lashes are not in focus. […]"}
{"smiles": "CCNC(=O)CCC/C=C\\C[C@@H]1[C@@H](/C=C/[C@@H](O)CCc2ccccc2)[C@H](O)C[C@@H]1O", "note": "[bimatoprost]", "values": [{"measurement": "lash growth, treated eye versus non-treated eye", "value": "longer, thicker, and fuller in the treated eye than in the non-treated eye"}]}
